Test results: EP1586565A1, “Substituted polycyclic aryl and heteroaryl pyrazinones useful for selective inhibition of the coagulation cascade” (Pharmacia Corporation, priority 1999, dated 2000)

Assays:
TF-VIIa = biological target: T1, TF-VIIa (Homo sapiens, UniProt P08709); experiment: TF-VIIa Assay; type: biochemical; details: for IC50 or % Inhibition TF-VIIa (30 µM): % inhibition at 30 µM (cells with % or %@30, bare 0)
T1 construct: An extrinsic pathway is initiated by the conversion of coagulation factor VII to VIIa by Xa; purchased American Diagnostica, Greenwich CT; Soluble TF was made in house in E. coli

Human factor Xa = biological target: T2, Human factor Xa (Homo sapiens, UniProt P00742); experiment: Xa Assay; type: biochemical; details: for IC50 or % Inhibition Factor Xa (30 µM): % inhibition at 30 µM (cells with % or %@30, bare 0)
T2 construct: leads from XII to XIIa to XIa to IXa and to the conversion of X to Xa; purchased Enzyme Research Laboratories, South Bend IN
T2 sequence (P00742 235-488 limits assumed): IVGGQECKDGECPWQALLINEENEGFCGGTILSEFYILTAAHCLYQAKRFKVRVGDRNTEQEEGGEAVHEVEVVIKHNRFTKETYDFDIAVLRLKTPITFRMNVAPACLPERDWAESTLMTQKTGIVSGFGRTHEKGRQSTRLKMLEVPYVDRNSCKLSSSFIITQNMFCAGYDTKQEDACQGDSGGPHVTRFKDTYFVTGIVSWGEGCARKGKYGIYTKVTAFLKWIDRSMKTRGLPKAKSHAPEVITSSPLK
T2 sequence (P00742 41-179 limits assumed): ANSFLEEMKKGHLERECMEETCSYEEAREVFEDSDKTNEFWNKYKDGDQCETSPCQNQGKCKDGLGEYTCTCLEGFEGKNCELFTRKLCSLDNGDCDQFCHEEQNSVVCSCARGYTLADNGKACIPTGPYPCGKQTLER

T1 sequence (P08709 213-466 limits assumed): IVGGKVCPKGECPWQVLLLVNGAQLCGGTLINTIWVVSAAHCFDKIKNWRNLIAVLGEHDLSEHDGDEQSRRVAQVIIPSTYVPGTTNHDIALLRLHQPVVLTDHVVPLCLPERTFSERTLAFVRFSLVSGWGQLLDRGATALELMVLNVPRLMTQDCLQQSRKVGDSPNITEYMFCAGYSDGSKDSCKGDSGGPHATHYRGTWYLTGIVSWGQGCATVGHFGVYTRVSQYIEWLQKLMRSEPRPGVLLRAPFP
T1 sequence (P08709 61-212 limits assumed): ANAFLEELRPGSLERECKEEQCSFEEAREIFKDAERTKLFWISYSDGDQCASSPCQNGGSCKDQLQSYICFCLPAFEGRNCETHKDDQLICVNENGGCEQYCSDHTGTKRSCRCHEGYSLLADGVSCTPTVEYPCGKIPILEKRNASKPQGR
T1 sequence (P13726 33-251 partner limits assumed): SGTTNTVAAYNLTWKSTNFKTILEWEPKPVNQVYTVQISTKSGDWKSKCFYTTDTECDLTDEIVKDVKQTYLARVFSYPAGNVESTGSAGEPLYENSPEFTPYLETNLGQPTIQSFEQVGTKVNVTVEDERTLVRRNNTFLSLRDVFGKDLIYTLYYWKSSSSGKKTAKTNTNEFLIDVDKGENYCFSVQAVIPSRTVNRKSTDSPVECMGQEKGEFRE

SMILES: N=C(N)c1ccc(CNC(=O)Cn2c(-c3ccccc3)c(Cl)nc(NCc3cccc(OC(F)(F)F)c3)c2=O)cc1 [1512-40]
- IC50 or % Inhibition TF-VIIa (30 µM) (TF-VIIa): 40%
- IC50 or % Inhibition Factor Xa (30 µM) (Human factor Xa): 3%

SMILES: N=C(N)c1ccc(CNC(=O)Cn2c(-c3ccc(-c4ccccc4)cc3)c(Cl)nc(NCCc3cccnc3)c2=O)cc1 [Example 21]
- IC50 or % Inhibition TF-VIIa (30 µM) (TF-VIIa): 8%@30

SMILES: Cc1cc(Cl)cc(Cl)c1CNc1nc(Cl)c(-c2ccccc2)n(CC(=O)NCc2ccc(C(=N)N)cc2)c1=O [1512-45]
- IC50 or % Inhibition TF-VIIa (30 µM) (TF-VIIa): 27%
- IC50 or % Inhibition Factor Xa (30 µM) (Human factor Xa): 11%

SMILES: COc1ccc(-c2c(Cl)nc(NCc3ccncc3)c(=O)n2CC(=O)NCc2ccc(C(=N)N)cc2)cc1 [1471-35]
- IC50 or % Inhibition TF-VIIa (30 µM) (TF-VIIa): 37%
- IC50 or % Inhibition Factor Xa (30 µM) (Human factor Xa): 22%

SMILES: N=C(N)c1ccc(CNC(=O)Cn2c(-c3ccc(-c4ccccc4)cc3)c(Cl)nc(NCCc3cccnc3)c2=O)cc1 [1471-72]
- IC50 or % Inhibition TF-VIIa (30 µM) (TF-VIIa): 15%
- IC50 or % Inhibition Factor Xa (30 µM) (Human factor Xa): 22%

SMILES: N=C(N)c1ccc(CNC(=O)Cn2c(-c3ccc(-c4ccccc4)cc3)c(Cl)nc(NCCc3cccc(Cl)c3)c2=O)cc1 [1471-70]
- IC50 or % Inhibition TF-VIIa (30 µM) (TF-VIIa): 10%
- IC50 or % Inhibition Factor Xa (30 µM) (Human factor Xa): 12%

SMILES: N=C(N)c1ccc(CNC(=O)Cn2c(-c3ccccc3)c(Cl)nc(NC3Cc4ccccc4C3)c2=O)cc1 [1507-08]
- IC50 or % Inhibition TF-VIIa (30 µM) (TF-VIIa): 7%
- IC50 or % Inhibition Factor Xa (30 µM) (Human factor Xa): 1%

SMILES: COc1ccc(-c2c(Cl)nc(NCCc3cccnc3)c(=O)n2CC(=O)NCc2ccc(C(=N)N)cc2)cc1 [1471-40]
- IC50 or % Inhibition TF-VIIa (30 µM) (TF-VIIa): 40%
- IC50 or % Inhibition Factor Xa (30 µM) (Human factor Xa): 11%

SMILES: COc1ccc(-c2c(Cl)nc(NCCN3CCOCC3)c(=O)n2CC(=O)NCc2ccc(C(=N)N)cc2)cc1 [1471-36]
- IC50 or % Inhibition TF-VIIa (30 µM) (TF-VIIa): 11%
- IC50 or % Inhibition Factor Xa (30 µM) (Human factor Xa): 6%

SMILES: N=C(N)c1ccc(CNC(=O)Cn2c(-c3ccccc3)c(Cl)nc(N3CCC3)c2=O)cc1 [1522-28]
- IC50 (TF-VIIa; cells printed as bare numbers (IC50), read-out: IC50 or % Inhibition TF-VIIa (30 µM)): > 30 µM

SMILES: CC(=O)Nc1cccc(-c2c(Cl)nc(NC(C)C)c(=O)n2CC(=O)NCCc2ccc(C(=N)N)cc2)c1 [Example 68]
- IC50 or % Inhibition TF-VIIa (30 µM) (TF-VIIa): 32%
- IC50 or % Inhibition Factor Xa (30 µM) (Human factor Xa): 6%

SMILES: N=C(N)c1ccc(CNC(=O)Cn2c(-c3ccc(Cl)cc3)c(Cl)nc(NCCN3CCOCC3)c2=O)cc1 [1471-20]
- IC50 or % Inhibition TF-VIIa (30 µM) (TF-VIIa): 42%
- IC50 or % Inhibition Factor Xa (30 µM) (Human factor Xa): 34%

SMILES: N=C(N)c1ccc(CNC(=O)Cn2c(-c3ccccc3)c(Cl)nc(NC(Cc3ccccc3)c3ccccc3)c2=O)cc1 (stereo not drawn) [1507-07]
- IC50 or % Inhibition TF-VIIa (30 µM) (TF-VIIa): 25%

SMILES: N=C(N)c1ccc(CNC(=O)Cn2c(-c3ccccc3)c(Cl)nc(NCc3ccc(Cl)cc3Cl)c2=O)cc1 [1507-22]
- IC50 or % Inhibition TF-VIIa (30 µM) (TF-VIIa): 45%

SMILES: N=C(N)c1ccc(CNC(=O)Cn2c(-c3ccccc3)c(Cl)nc(NCc3cccc4ccccc34)c2=O)cc1 [1507-28]
- IC50 or % Inhibition TF-VIIa (30 µM) (TF-VIIa): 38%

SMILES: N=C(N)c1ccc(CNC(=O)Cn2c(-c3ccc(-c4ccccc4)cc3)c(Cl)nc(NCCc3ccc(Cl)cc3)c2=O)cc1 [Example 22]
- IC50 or % Inhibition TF-VIIa (30 µM) (TF-VIIa): 0%@30

SMILES: N=C(N)c1ccc(CNC(=O)Cn2c(-c3ccc(C(F)(F)F)cc3)c(Cl)nc(NC3CCC3)c2=O)cc1 [1515-20]
- IC50 or % Inhibition TF-VIIa (30 µM) (TF-VIIa): 32%

SMILES: O=C(Cn1c(-c2cccc(Cl)c2)c(Cl)nc(NCCc2ccc(Cl)cc2)c1=O)NCCc1cccnc1 [Example E-0083]
- % Inhibition Factor Xa (100 µM) (Human factor Xa): 3%

SMILES: CCCC(CCC)Nc1nc(Cl)c(-c2ccccc2)n(CC(=O)NCc2ccc(C(=N)N)cc2)c1=O [1517-26]
- IC50 or % Inhibition Factor Xa (30 µM) (Human factor Xa): 0%

SMILES: N=C(N)c1ccc(CNC(=O)Cn2c(-c3ccccc3)c(Cl)nc(NCc3cc(C(F)(F)F)ccc3F)c2=O)cc1 [1512-27]
- IC50 or % Inhibition Factor Xa (30 µM) (Human factor Xa): 3%

SMILES: O=C(Cn1c(-c2ccc(Cl)cc2)c(Cl)nc(NCCN2CCOCC2)c1=O)NCCc1ccncc1 [Example E-0031]
- % Inhibition Factor Xa (100 µM) (Human factor Xa): 0%

SMILES: CCCCNc1nc(Cl)c(-c2ccccc2)n(CC(=O)NCc2ccc(C(=N)N)cc2)c1=O [1512-14]
- IC50 or % Inhibition Factor Xa (30 µM) (Human factor Xa): 7%

SMILES: CC(C)Nc1nc(Cl)c(-c2cccnc2)n(CC(=O)NCc2ccc(C(=N)N)cc2)c1=O [compound 75]
- IC50 or % Inhibition Factor Xa (30 µM) (Human factor Xa): 9%
